According to patent US6100272A, “Tetracyclic spiro compounds as 5HT1B receptor antagonists” (SmithKline Beecham p.l.c., priority 1996, dated 2000):

Biological target: T1, 5-HT 1B receptors (Homo sapiens, UniProt P28222)
T1 construct: expressed in transfected cells; host or cells: CHO cells (homogenised in Tris buffer)
Experiment: 5-HT 1B and 5-HT 1D receptor binding ([3H]-5-HT displacement, CHO cell homogenates)
Conditions: CHO cells expressing receptor; [3H]-5-HT 4 nM; Tris Mg HCl buffer pH 7.7; 37° C., 45 minutes; pKi calculated from IC50
Protocol: CHO cells expressing 5-HT 1D receptors (0.563×10^8 cells/ml) were homogenised in Tris buffer and stored in 1 ml aliquots. CHO cells expressing 5-HT 1B receptors (4×10^7 cells/ml) were homogenised in Tris buffer and stored in 1.5 ml aliquots. 0.4 ml of a cell suspension was incubated with [^3 H-5-HT (4 nM) in Tris Mg HCl buffer (pH 7.7) and test drug, at 37° C. for 45 minutes. Each test drug was tested at 10 concentrations (0.01 mM to 0.3 nM final concentration), with non-specific binding defined using 0.01 mM 5-HT. The total assay volume was 0.5 ml. Incubation was stopped by rapid filtration using a Packard Filtermate (filters pre-soaked in 0.3% polyethylenimine) and radioactivity measured by Topcount scintillation counting. pKi values were calculated from the IC50 generated by an iterative least squares curve fitting programme.

T1 sequence (P28222 whole entry): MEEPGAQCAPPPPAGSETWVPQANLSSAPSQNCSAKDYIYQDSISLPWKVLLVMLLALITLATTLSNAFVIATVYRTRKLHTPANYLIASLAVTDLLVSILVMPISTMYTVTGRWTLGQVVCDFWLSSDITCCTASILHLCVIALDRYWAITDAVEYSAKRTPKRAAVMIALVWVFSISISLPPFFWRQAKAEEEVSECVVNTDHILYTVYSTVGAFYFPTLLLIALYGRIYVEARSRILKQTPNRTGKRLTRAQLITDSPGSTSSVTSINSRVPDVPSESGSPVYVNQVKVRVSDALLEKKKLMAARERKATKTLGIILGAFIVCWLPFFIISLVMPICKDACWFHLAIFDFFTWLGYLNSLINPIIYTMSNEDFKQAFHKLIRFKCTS

| SMILES | pKi values at 5-HT 1D beta receptors |
| --- | --- |
| Cc1cc(N2CCCC2=O)ccc1-c1ccc(C(=O)N2CCc3cc4c(cc32)C2(CO4)C[C@@H](C)N(C)[C@@H](C)C2)cc1 (stereo partly drawn) [Example 28, cis-2',6'-dimethyl isomer of 5-[2'-Methyl-4'-(2-oxopyrrolidin-1-yl)biphenyl-4-carbonyl]-2,3,6,7-tetrahydro-1',2',6'-trimethylspiro[furo[2,3-f]indole-3,4'-piperidine]] | > 8.0 |

Same assay, conditions: CHO cells expressing receptor; [3H]-5-HT 4 nM; Tris Mg HCl buffer pH 7.7; 37° C., 45 minutes; pKi calculated from IC50; read-out: pKi values at 5-HT 1D beta receptors (converted)

| SMILES | Ki [µM] |
| --- | --- |
| Cc1cc(N2CCOC2=O)ccc1-c1ccc(C(=O)N2CCc3cc4c(cc32)C2(CCN(C)CC2)CO4)cc1 [Example 3, 5-[4'-(4,5-Dihydro-2-oxooxazol-3-yl)-2'-methylbiphenyl-4-carbonyl]-1'-methyl-2,3,6,7-tetrahydrospiro[furo[2,3-f]indole-3,4'-piperidine]] | < 0.01 |
| C=CCN1CCC2(CC1)COc1cc3c(cc12)N(C(=O)c1ccc(-c2ccc(N4CCCC4=O)cc2C)cc1)CC3 [Example 24, 1'-Allyl-5-[2'-methyl-4'-(2-oxopyrrolidin-1-yl)biphenyl-4-carbonyl]-2,3,6,7-tetrahydrospiro[furo[2,3-f]indole-3,4'-piperidine]] | < 0.01 |
| Cc1cc(N2CCNC2=O)ccc1-c1ccc(C(=O)N2CCc3cc4c(cc32)C2(CCN(C)CC2)CO4)cc1 [Example 7] | < 0.01 |
| CN1CCC2(CC1)COc1cc3c(cc12)N(C(=O)c1ccc(-c2ccc(N4CCCC4=O)cc2Cl)cc1)CC3 [Example 14] | < 0.01 |
| Cc1cc(N2CCCC2=O)ccc1-c1ccc(C(=O)C2=C3CC4=C(C=C3N=C2)OCC42CCN(C)CC2)cc1 [Example 33, 2,3-Dihydro-1'-methyl-5-[2'-methyl-4'-(2-oxopyrrolidin-1-yl)biphenyl-4-carbonyl]spiro[furo[3,2-f]indole3,4'-piperidine]] | < 0.01 |
| Cc1cc(N2CCC(C)C2=O)ccc1-c1ccc(C(=O)N2CCc3cc4c(cc32)C2(CCN(C)CC2)CO4)cc1 (stereo not drawn) [Example 9] | < 0.01 |
| Cc1cc(N2CCN(C)C2=O)ccc1-c1ccc(C(=O)N2CCc3cc4c(cc32)C2(CCN(C)CC2)CO4)cc1 [Example 8] | < 0.01 |
| CC(=O)Nc1ccc(-c2ccc(C(=O)N3CCc4cc5c(cc43)C3(CCN(C)CC3)CO5)cc2)c(C)c1 [Example 4, 5-(4'-Acetamido-2'-methylbiphenyl-4-carbonyl)-1'-methyl-2,3,6,7-tetrahydrospiro[furo[2,3-f]indole-3,4'-piperidine]] | < 0.01 |
